Assay results taken from US11964971B2, “Methods and compositions for modulating splicing” (Skyhawk Therapeutics, Inc., priority 2019, dated 2024).

Legend:
[1] = test system: MDR1-MDCK cell monolayers; settings: dog, MDCK-MDR1, 120 min, 5 μM, pH 7.4
MDR1 = experiment: in vitro; settings: dog; for Papp A→B at 120 min, 5 μM: MDCK-MDR1, pH 7.4, MDCK-MDR1: Papp A-B (10^−6, cm/s); for Papp B→A at 120 min, 5 μM: MDCK-MDR1, pH 7.4, MDCK-MDR1: Papp B-A (10^−6, cm/s)
MDR1 (P-gp) = experiment: MDCK-MDR1 permeability assay, blood-brain-barrier penetration potential; settings: dog, MDCK-MDR1, pH 7.4, MDCK-MDR1 Efflux Ratio
SMN protein = SMN protein assay (MSD) in SMA patient fibroblasts (GM03813); format: cell-based, human
In short: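 Absolute SMN protein measured by Mesoscale Discovery assay in lysates, calibrated per plate with SMN standards (1–19.5 μg/ml). Cells: GM03813 SMA fibroblasts, 7000/well, 48 h compound exposure at doses of 2.5 μM down to 0.6 nM.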

Compound	MDCK-MDR1: % Recov A-B (%) [1] [%]	MDCK-MDR1: % Recov B-A (%) [1] [%]	Papp A→B at 120 min, 5 μM (MDR1) [×10⁻⁶ cm/s]	Papp B→A at 120 min, 5 μM (MDR1) [×10⁻⁶ cm/s]	efflux ratio at 120 min, 5 μM (MDR1 (P-gp))	EC50 (SMN protein) [nM]
COc1cc(-c2ccc(-c3cnc(N(C)[C@@H]4CC5CC[C@H](N5)[C@@H]4F)cn3)c(O)c2)cc(F)n1 (single isomer, unassigned) [Compound 44E1]	14	41	2.33	5.55	2	501 to 10000
COc1cc(-c2cc(O)c(-c3cnc(N(C4CC4)[C@@H]4CC5CC[C@H](N5)[C@@H]4F)cn3)cc2F)ccn1 (single isomer, unassigned) [Compound 36E1]	8	37	0.52	1.41	3	501 to 10000
CN(C)C(=O)c1cc(O)c(-c2cnc(N(C)[C@@H]3CC4CC[C@H](N4)[C@@H]3F)cn2)cc1F (single isomer, unassigned) [Compound 14E1]	79	84	0.75	39.1	52	501 to 10000
COc1cc(-c2cc(O)c(-c3cnc(N(C4CC4)[C@H]4C[C@@H]5CCC(N5)[C@H]4F)cn3)cc2F)cc(F)n1 (single isomer, unassigned) [Compound 37E2]	19	45	0.94	2.58	3	501 to 10000
CN(c1cnc(-c2ccc(-c3nnco3)cc2O)cn1)[C@@H]1CC2CC[C@H](N2)[C@@H]1F (single isomer, unassigned) [Compound 80E1]	63	76	5.24	21.5	4	101 to 500
CN(c1cnc(-c2cc(F)c(-c3ccn(CF)c(=O)c3)cc2O)cn1)[C@@H]1C[C@H]2CC[C@H](N2)[C@@H]1F [Compound 32E1, 4-(2-fluoro-4-(5-(((1S,2S,3R,5R)-2-fluoro-8-azabicyclo[3.2.1]octan-3-yl)(methyl)amino)pyrazin-2-yl)-5-hydroxyphenyl)-1-(fluoromethyl)pyridin-2(1H)-one]	101	92	3.13	58.7	19	501 to 10000
CN(c1cnc(-c2cc3ncn(CC(F)(F)F)c(=O)c3cc2O)cn1)[C@H]1C[C@@H]2CCC[C@@H](N2)[C@H]1F [Compound 18E2, 7-(5-(((1R,2R,3S,5S)-2-fluoro-9-azabicyclo[3.3.1]nonan-3-yl)(methyl)amino)pyrazin-2-yl)-6-hydroxy-3-(2,2,2-trifluoroethyl)quinazolin-4(3H)-one]	82	87	1.33	73.5	56	501 to 10000
Oc1cc(-n2ccnn2)c(F)cc1-c1cnc(N(C2CC2)[C@@H]2CC3CC[C@H](N3)[C@@H]2F)cn1 (single isomer, unassigned) [Compound 11E1]	74	83	5.25	35.9	7	501 to 10000
CN(c1cnc(-c2ccc(-c3ccn(CF)c(=O)c3)cc2O)cn1)[C@@H]1CC2CC[C@H](N2)[C@@H]1F (single isomer, unassigned) [Compound 46E1]	74	78	1.69	37.9	22	501 to 10000
CN(c1cnc(-c2ccc(C3=CCOC3)cc2O)cn1)[C@H]1C[C@@H]2CCC(N2)[C@H]1F (single isomer, unassigned) [Compound 84E2]	28	66	4.64	14.9	3	16 to 50
CNC(=O)c1cc(O)c(-c2cnc(N(C)[C@H]3C[C@@H]4CCC(N4)[C@H]3F)cn2)cc1F (single isomer, unassigned) [Compound 15E2]	85	86	2.66	68.8	26	501 to 10000
C[C@@]12CC[C@@](C)(N1)[C@@H](F)[C@@H](Oc1cnc(-c3ccc(-c4cn[nH]c4)cc3O)cn1)C2 [Compound 2E1, 2-(5-(((1R,2R,35,5S)-2-fluoro-1,5-dimethyl-8-azabicyclo[3.2.1]octan-3-yl)oxy)pyrazin-2-yl)-5-(1H-pyrazol-4-yl)phenol]	71	86	7.93	40.7	5	501 to 10000
Cn1ccc(-c2ccc(-c3cnc(N(C4CC4)[C@@H]4CC5CC[C@H](N5)[C@@H]4F)cn3)c(O)c2)cc1=O (single isomer, unassigned) [Compound 53E1]	71	71	1.51	50.9	34	501 to 10000
COc1cc(-c2cc(O)c(-c3cnc(N(C)[C@H]4C[C@@H]5CCC(N5)[C@H]4F)cn3)cc2F)ccn1 (single isomer, unassigned) [Compound 30E2]	10	37	2.55	4.14	2	51 to 100
CN(c1cnc(-c2ccc(-c3cn[nH]c3)cc2O)cn1)[C@@H]1C[C@@]2(C)CC[C@H](N2)[C@@H]1F [Compound 28E4, 2-(5-(((1R,3R,4S,5S)-4-fluoro-1-methyl-8-azabicyclo[3.2.1]octan-3-yl)(methyl)amino)pyrazin-2-yl)-5-(1H-pyrazol-4-yl)phenol]	68	84	4.42	48.4	11	501 to 10000
CN(c1cnc(-c2cc(F)c(-c3cn[nH]c3)cc2O)cn1)[C@@H]1CC2CC(F)(F)[C@@H](C1)N2 (single isomer, unassigned) [Compound 65E1]	54	71	20.9	54.5	3	101 to 500
CN(c1cnc(-c2ccc(C3=CC(=O)NC3)cc2O)cn1)[C@@H]1CC2CC[C@H](N2)[C@@H]1F (single isomer, unassigned) [Compound 78E1]	81	85	0.77	41	53	501 to 10000
CN(c1cnc(-c2ccc(-c3cnn(C)c3)cc2O)cn1)[C@@H]1CC2N[C@H](C1)CC2(F)F (single isomer, unassigned) [Compound 10E2]	64	67	28.7	23.7	1	101 to 500
CN(c1cnc(-c2ccc(-c3cnn(C)c3)cc2O)cn1)[C@H]1C[C@@H]2COCC(N2)[C@H]1F (single isomer, unassigned) [Compound 73E2]	51	74	9.34	49.1	5	501 to 10000
COc1cc(-c2ccc(-c3cnc(N(C4CC4)[C@@H]4CC5CC[C@H](N5)[C@@H]4F)cn3)c(O)c2)cc(F)n1 (single isomer, unassigned) [Compound 52E1]	12	76	0.92	0.71	1	501 to 10000
CN(c1cnc(-c2cc(F)c(-c3ccn(CF)c(=O)c3)cc2O)cn1)[C@H]1C[C@@H]2CCC(N2)[C@H]1F (single isomer, unassigned) [Compound 32E2]	86	88	2.58	51.2	20	16 to 50
CN(c1cnc(-c2ccc(-c3cnn(C)c3)cc2O)cn1)[C@@H]1C[C@H]2CCC[C@H](N2)[C@@H]1F [Compound 4E1, 2-(5-(((1S,2S,3R,5R)-2-fluoro-9-azabicyclo[3.3.1]nonan-3-yl)(methyl)amino)pyrazin-2-yl)-5-(1-methyl-1H-pyrazol-4-yl)phenol]	44	66	4.89	31.4	6	51 to 100
CN(c1cnc(-c2cc(F)c(-c3ccn(C)c(=O)c3)cc2O)cn1)[C@@H]1CC2CC[C@H](N2)[C@@H]1F (single isomer, unassigned) [Compound 13E1]	454			106	49	101 to 500
